Assays:
Assay in all cases: combination Emax (second highest fraction inhibited in the dose matrix, 72 h); higher = more inhibition; extreme values may be limits of the assay
[1] = tested on: KARPAS-620 (Plasma Cell Myeloma)
Outline: (§1)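 Cell lines in DMEM/F12 or RPMI with 10% FBS were plated in 1536-well plates, held 24 hours at 37°C, 5% CO2, then given two-drug dose matrices for 72 hours (DMSO typically 0.2%). Viability was read by CellTiter-Glo 2.0 luminescence and scaled as inhibition from 0 (vehicle wells) to 1 (blank wells). Combination Emax is the second-highest inhibition in the matrix; Bliss excess is observed combination effect minus expected EA + EB − EA·EB, EA and EB being single-agent effects.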

DSH1 (Bladder Carcinoma) = tested on: DSH1 (Bladder Carcinoma)
Outline: as §1

RH-1 (Ewing's Sarcoma) = tested on: RH-1 (Ewing's Sarcoma)
Outline: as §1

[2] = tested on: MFH-ino (Other Solid Carcinomas)
Outline: as §1

SK-N-FI (Neuroblastoma) = tested on: SK-N-FI (Neuroblastoma)
Outline: as §1

[3] = tested on: HCC2157 (Breast Carcinoma)
Outline: as §1

[4] = tested on: SW1783 (Low Grade Glioma)
Outline: as §1

[5] = tested on: SW756 (Cervical Carcinoma)
Outline: as §1

[6] = tested on: KATOIII (Gastric Carcinoma)
Outline: as §1

[7] = tested on: C3A (Hepatocellular Carcinoma)
Outline: as §1

[8] = tested on: NALM-6 (B-Lymphoblastic Leukemia)
Outline: as §1

[9] = tested on: CFPAC-1 (Pancreatic Carcinoma)
Outline: as §1

[10] = tested on: LU-99A (Non-Small Cell Lung Carcinoma)
Outline: as §1

[11] = tested on: SUIT-2 (Pancreatic Carcinoma)
Outline: as §1

[12] = tested on: JiyoyeP-2003 (Burkitt's Lymphoma)
Outline: as §1

[13] = tested on: EM-2 (Chronic Myelogenous Leukemia)
Outline: as §1

[14] = tested on: G-292-Clone-A141B1 (Osteosarcoma)
Outline: as §1

[15] = tested on: KARPAS-1106P (B-Cell Non-Hodgkin's Lymphoma)
Outline: as §1

NCI-H2369 (Mesothelioma) = tested on: NCI-H2369 (Mesothelioma)
Outline: as §1

[16] = tested on: DB (B-Cell Non-Hodgkin's Lymphoma)
Outline: as §1

| Compound | combination Emax [1] | combination Emax (DSH1 (Bladder Carcinoma)) | combination Emax (RH-1 (Ewing's Sarcoma)) | combination Emax [2] | combination Emax (SK-N-FI (Neuroblastoma)) | combination Emax [3] | combination Emax [4] | combination Emax [5] | combination Emax [6] | combination Emax [7] | combination Emax [8] | combination Emax [9] | combination Emax [10] | combination Emax [11] | combination Emax [12] | combination Emax [13] | combination Emax [14] | combination Emax [15] | combination Emax (NCI-H2369 (Mesothelioma)) | combination Emax [16] |
| --- | --- | --- | --- | --- | --- | --- | --- | --- | --- | --- | --- | --- | --- | --- | --- | --- | --- | --- | --- | --- |
| NC1(C(=O)N[C@@H](CCO)c2ccc(Cl)cc2)CCN(c2ncnc3[nH]ccc23)CC1 [Capivasertib] + CC(=O)c1c(C)c2cnc(Nc3ccc(N4CCNCC4)cn3)nc2n(C2CCCC2)c1=O [Palbociclib] (first compound max 10 µM, 7x7, partner max 10 µM) | 0.781 | 0.62 | 0.391 | 0.483 | 0.413 | 1 | 0.407 | 0.389 | 0.311 | 0.556 | 0.858 | 0.519 | 0.502 | 0.552 | 0.683 | 0.384 | 0.333 | 0.761 | 0.259 | 0.728 |
| NC1(C(=O)N[C@@H](CCO)c2ccc(Cl)cc2)CCN(c2ncnc3[nH]ccc23)CC1 [Capivasertib] + COc1nnc2ccc(N3CCC(c4ccc(OCCN5CCN(C)C(=O)[C@H]5C)cc4)CC3)nn12 [AZD5153] (first compound max 10 µM, 7x7, partner max 1 µM) | 0.897 | 0.941 | 0.699 | 0.513 | 0.579 | 1 | 0.473 | 0.413 | 0.201 | 0.478 | 0.945 | 0.531 | 0.665 | 0.535 | 0.912 | 0.958 | 0.573 | 0.979 | 0.268 | 0.669 |
| COc1nnc2ccc(N3CCC(c4ccc(OCCN5CCN(C)C(=O)[C@H]5C)cc4)CC3)nn12 [AZD5153] + Cn1cnc2c(F)c(Nc3ccc(Br)cc3Cl)c(C(=O)NOCCO)cc21 [Selumetinib] (first compound max 1 µM, 7x7, partner max 10 µM) | 0.99 | 0.683 | 0.315 | 0.636 | 0.844 | 1 | 0.246 | 0.534 | 0.424 | 0.777 | 0.886 | 0.584 | 0.949 | 0.558 | 0.839 | 0.992 | 0.317 | 0.699 | 0.368 | 0.761 |
| CN(C)CCCOc1ccc(-c2ccc3ncc4c(c3c2)n(C2CCOCC2)c(=O)n4C)cn1 [AZD0156] + O=C(c1cc(Cc2n[nH]c(=O)c3ccccc23)ccc1F)N1CCN(C(=O)C2CC2)CC1 [Olaparib] (first compound max 3 µM, partner max 3 µM) | 0.612 | 0.387 | 0.649 | 0.256 | 0.148 | 0.38 | 0.401 | 0.155 | 0.195 | 0.22 | 0.696 | 0.434 | 0.408 | 0.195 | 0.311 | 0.306 | 0.411 | 0.551 | 0.181 | 0.476 |
| Cc1c2c(nn1C)CSCc1cc(n(C)n1)CSc1cc(c3ccccc3c1)OCCCc1c(C(=O)O)n(C)c3c-2c(Cl)ccc13 [AZD5991] + C1CN(CCC1(C(=O)N[C@@H](CCO)C2=CC=C(C=C2)Cl)N)C3=NC=NC4=C3C=CN4 [Capivasertib] (first compound max 1 µM, 7x7, partner max 3 µM) | 1 | 0.927 | 0.795 | 0.248 | 0.514 | 0.992 | 0.352 | 0.136 | 0.233 | 0.254 | 0.694 | 0.2 | 0.297 | 0.149 | 0.857 | 0.409 | 0.248 | 0.901 | 0.22 | 0.987 |
| NC1(C(=O)N[C@@H](CCO)c2ccc(Cl)cc2)CCN(c2ncnc3[nH]ccc23)CC1 [Capivasertib] + Cn1cnc2c(F)c(Nc3ccc(Br)cc3Cl)c(C(=O)NOCCO)cc21 [Selumetinib] (first compound max 10 µM, 7x7, partner max 10 µM) | 0.96 | 0.954 | 0.317 | 0.556 | 0.614 | 1 | 0.415 | 0.448 | 0.431 | 0.603 | 0.697 | 0.491 | 0.709 | 0.646 | 0.775 | 0.771 | 0.371 | 0.586 | 0.231 | 0.422 |
| C[C@@H](c1ccc2nccn2c1)n1nnc2ncc(-c3cnn(C)c3)nc21 [Savolitinib] + Cc1c2c(nn1C)CSCc1cc(n(C)n1)CSc1cc(c3ccccc3c1)OCCCc1c(C(=O)O)n(C)c3c-2c(Cl)ccc13 [AZD5991] (first compound max 1 µM, 7x7, partner max 1 µM) | 0.997 | 0.678 | 0.518 | 0.207 | 0.24 | 0.978 | 0.22 | 0.128 | 0.211 | 0.195 | 0.226 | 0.115 | 0.134 | 0.208 | 0.166 | 0.364 | 0.138 | 0.734 | 0.116 | 0.986 |
| CCN(CCO)CCCOc1ccc2c(Nc3cc(CC(=O)Nc4cccc(F)c4)[nH]n3)ncnc2c1 [AZD2811] + C=CCn1c(=O)c2cnc(Nc3ccc(N4CCN(C)CC4)cc3)nc2n1-c1cccc(C(C)(C)O)n1 [AZD1775] (first compound max 1 µM, partner max 1 µM) | 0.327 | 0.324 | 1 | 0.183 | 0.666 | 0.854 | 0.193 | 0.407 | 0.221 | 0.421 | 0.915 | 0.372 | 0.585 | 0.625 | 0.926 | 0.96 | 0.152 | 0.842 | 0.151 | 0.867 |
| C=CCn1c(=O)c2cnc(Nc3ccc(N4CCN(C)CC4)cc3)nc2n1-c1cccc(C(C)(C)O)n1 [AZD1775] + O=C(c1cc(Cc2n[nH]c(=O)c3ccccc23)ccc1F)N1CCN(C(=O)C2CC2)CC1 [Olaparib] (first compound max 1 µM, partner max 10 µM) | 0.489 | 0.369 | 1 | 0.413 | 0.715 | 0.892 | 0.342 | 0.35 | 0.198 | 0.55 | 0.94 | 0.476 | 0.546 | 0.607 | 0.915 | 0.938 | 0.294 | 0.872 | 0.258 | 0.912 |
| Cc1c2c(nn1C)CSCc1cc(n(C)n1)CSc1cc(c3ccccc3c1)OCCCc1c(C(=O)O)n(C)c3c-2c(Cl)ccc13 [AZD5991] + C[C@@H]1COCCN1C2=NC(=NC(=C2)C3(CC3)[S@](=N)(=O)C)C4=C5C=CNC5=NC=C4 [AZD6738] (first compound max 1 µM, 7x7, partner max 10 µM) | 1 | 0.919 | 0.956 | 0.524 | 0.815 | 0.998 | 0.441 | 0.283 | 0.373 | 0.437 | 0.895 | 0.555 | 0.572 | 0.424 | 0.965 | 0.98 | 0.281 | 0.965 | 0.247 | 0.999 |
| Cc1c2c(nn1C)CSCc1cc(n(C)n1)CSc1cc(c3ccccc3c1)OCCCc1c(C(=O)O)n(C)c3c-2c(Cl)ccc13 [AZD5991] + CN(C)CCCOc1ccc(-c2ccc3ncc4c(c3c2)n(C2CCOCC2)c(=O)n4C)cn1 [AZD0156] (first compound max 1 µM, 7x7, partner max 1 µM) | 1 | 0.638 | 0.666 | 0.22 | 0.443 | 0.98 | 0.218 | 0.203 | 0.182 | 0.198 | 0.408 | 0.209 | 0.334 | 0.217 | 0.756 | 0.394 | 0.332 | 0.925 | 0.208 | 0.974 |
| CC(=O)c1c(C)c2cnc(Nc3ccc(N4CCNCC4)cn3)nc2n(C2CCCC2)c1=O [Palbociclib] + CC1(C)CCC(CN2CCN(c3ccc(C(=O)NS(=O)(=O)c4ccc(NCC5CCOCC5)c([N+](=O)[O-])c4)c(Oc4cnc5[nH]ccc5c4)c3)CC2)=C(c2ccc(Cl)cc2)C1 [Venetoclax] (first compound max 10 µM, 7x7, partner max 1 µM) | 0.842 | 0.439 | 0.277 | 0.219 | 0.213 | 0.601 | 0.0456 | 0.0569 | 0.358 | 0.447 | 0.933 | 0.311 | 0.319 | 0.0936 | 0.614 | 0.287 | 0.0906 | 0.599 | 0.139 | 0.962 |
| Cc1cc2ncnn2cc1Nc1ncc2c(n1)n(C1CCOCC1)c(=O)n2C [AZD7648] + O=C(c1cc(Cc2n[nH]c(=O)c3ccccc23)ccc1F)N1CCN(C(=O)C2CC2)CC1 [Olaparib] (first compound max 10 µM, 7x7, partner max 10 µM) | 0.394 | 0.272 | 0.23 | 0.262 | 0.213 | 0.413 | 0.14 | 0.157 | 0.145 | 0.232 | 0.513 | 0.197 | 0.55 | 0.205 | 0.423 | 0.351 | 0.121 | 0.41 | 0.0731 | 0.451 |
